For test [1], the target named is FGFR1 (h) (Homo sapiens, UniProt P11362). Kind of test: FGFR1 (enzymatic assay), TR-FRET. It is filed as biochemical. Particulars: read-out: FGFR 1 pIC50 (converted).
Test [2] deals with FGFR2 (h) (Homo sapiens, UniProt P21802). Kind of test: FGFR2 (enzymatic assay), TR-FRET. Format: biochemical. To be noted: enzymatic assay, read-out: FGFR 2 pIC50 (converted). How it is done: In a final reaction volume of 30 μL, FGFR2 (h) (150 ng/ml) was incubated with 50 mM HEPES pH 7.5, 6 mM MnCl2, 1 mM DTT, 0.1 mM Na3VO4, 0.01% Triton-X-100, 500 nM Btn-Flt3 and 0.4 μM ATP in the presence of compound (1% DMSO final).
Chain of FGFR2 (h) (P21802 22-821): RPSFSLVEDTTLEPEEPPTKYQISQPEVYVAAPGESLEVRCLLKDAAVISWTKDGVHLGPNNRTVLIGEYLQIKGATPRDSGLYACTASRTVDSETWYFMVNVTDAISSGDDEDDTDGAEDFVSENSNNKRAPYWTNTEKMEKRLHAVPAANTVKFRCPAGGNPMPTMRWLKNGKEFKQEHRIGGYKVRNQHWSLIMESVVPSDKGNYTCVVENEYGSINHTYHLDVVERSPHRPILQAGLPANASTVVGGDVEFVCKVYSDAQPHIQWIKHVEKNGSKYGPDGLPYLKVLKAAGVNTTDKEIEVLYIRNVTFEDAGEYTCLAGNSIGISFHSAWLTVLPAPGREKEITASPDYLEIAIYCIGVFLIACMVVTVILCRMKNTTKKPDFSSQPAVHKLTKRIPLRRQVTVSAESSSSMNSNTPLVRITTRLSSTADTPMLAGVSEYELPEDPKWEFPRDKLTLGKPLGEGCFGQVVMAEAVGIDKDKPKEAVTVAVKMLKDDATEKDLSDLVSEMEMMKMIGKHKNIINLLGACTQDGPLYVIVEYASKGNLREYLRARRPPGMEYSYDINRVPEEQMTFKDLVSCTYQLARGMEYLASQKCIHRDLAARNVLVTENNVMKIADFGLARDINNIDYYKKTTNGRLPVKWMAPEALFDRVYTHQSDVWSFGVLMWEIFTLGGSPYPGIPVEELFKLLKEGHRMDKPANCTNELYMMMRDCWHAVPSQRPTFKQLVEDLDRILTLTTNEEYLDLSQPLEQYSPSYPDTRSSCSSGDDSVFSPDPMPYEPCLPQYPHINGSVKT

Test [3] has as its target FGFR3 (h) (Homo sapiens, UniProt P22607). Kind of test: FGFR3 (enzymatic assay), TR-FRET. It is filed as biochemical. Particulars: read-out: FGFR 3 pIC50 (converted). The source says: Time-Resolved Fluorescence Resonance Energy Transfer (TR-FRET) signal (ex340 nm.
The target in test [4] is FGFR4 (h) (Homo sapiens, UniProt P22455). Description: FGFR4 (enzymatic assay), TR-FRET. It is filed as biochemical. Particulars: FGFR 4 pIC50, enzymatic assay.
The target in test [5] is KDR (h) (Homo sapiens, UniProt P35968). Kind of test: KDR (VEGFR2) (enzymatic assay), TR-FRET. It is filed as biochemical. Particulars: for IC50: read-out: VEGFR 2 (KDR) pIC50 (converted). How it is done: KDR (VEGFR2) (Enzymatic Assay)
Chain of KDR (h) (P35968 20-1356): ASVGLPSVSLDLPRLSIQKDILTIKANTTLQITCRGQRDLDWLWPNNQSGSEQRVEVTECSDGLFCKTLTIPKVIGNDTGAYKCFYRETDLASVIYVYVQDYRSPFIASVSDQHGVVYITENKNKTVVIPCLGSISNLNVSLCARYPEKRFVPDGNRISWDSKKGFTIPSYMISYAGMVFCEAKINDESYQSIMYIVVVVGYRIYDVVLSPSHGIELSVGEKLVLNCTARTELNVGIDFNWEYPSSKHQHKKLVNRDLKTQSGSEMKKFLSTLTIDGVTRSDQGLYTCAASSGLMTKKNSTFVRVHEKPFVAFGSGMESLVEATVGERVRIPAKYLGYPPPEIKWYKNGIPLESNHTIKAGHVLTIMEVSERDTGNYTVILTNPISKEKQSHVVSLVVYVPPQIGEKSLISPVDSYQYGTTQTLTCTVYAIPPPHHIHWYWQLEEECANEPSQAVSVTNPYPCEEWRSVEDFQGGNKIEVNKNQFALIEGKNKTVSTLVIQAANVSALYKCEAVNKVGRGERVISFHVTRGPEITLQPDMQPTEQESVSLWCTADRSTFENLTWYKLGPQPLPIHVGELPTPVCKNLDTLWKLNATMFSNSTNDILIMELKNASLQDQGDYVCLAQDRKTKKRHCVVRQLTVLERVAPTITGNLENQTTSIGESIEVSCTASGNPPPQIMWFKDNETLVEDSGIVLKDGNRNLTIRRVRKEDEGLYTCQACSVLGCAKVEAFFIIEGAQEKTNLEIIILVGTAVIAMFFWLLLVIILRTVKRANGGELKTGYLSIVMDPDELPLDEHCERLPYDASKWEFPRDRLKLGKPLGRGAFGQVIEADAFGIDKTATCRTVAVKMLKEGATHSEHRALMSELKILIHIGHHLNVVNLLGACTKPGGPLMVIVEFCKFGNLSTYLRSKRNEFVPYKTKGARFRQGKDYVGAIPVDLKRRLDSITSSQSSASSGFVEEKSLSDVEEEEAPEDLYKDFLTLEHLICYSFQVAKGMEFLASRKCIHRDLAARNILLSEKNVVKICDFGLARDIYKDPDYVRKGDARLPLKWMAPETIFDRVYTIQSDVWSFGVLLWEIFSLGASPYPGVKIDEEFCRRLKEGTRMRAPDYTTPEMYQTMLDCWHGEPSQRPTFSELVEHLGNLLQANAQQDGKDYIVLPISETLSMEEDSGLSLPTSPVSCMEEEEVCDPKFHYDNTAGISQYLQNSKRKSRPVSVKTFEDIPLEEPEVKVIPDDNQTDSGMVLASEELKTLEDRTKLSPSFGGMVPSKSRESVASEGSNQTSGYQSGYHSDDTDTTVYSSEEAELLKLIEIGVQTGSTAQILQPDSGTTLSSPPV
In a final reaction volume of 30 μL, KDR (h) (150 ng/ml) was incubated with 50 mM HEPES pH 7.5, 6 mM MnCl2, 1 mM DTT, 0.1 mM Na3VO4, 0.01% Triton-X-100, 500 nM Btn-Flt3 and 3 μM ATP in the presence of compound (1% DMSO final). After incubation for 120 minutes at room temperature the reaction was stopped with 2.27 nM EU-anti P-Tyr, 7 mM EDTA, 31.25 nM SA-XL-665 and 0.02% BSA which was present for 60 minutes at room temperature. Time-Resolved Fluorescence Resonance Energy Transfer (TR-FRET) signal (ex340 nm. Em 620 nm, em 655 nm) was measured afterwards and results are expressed in RFU (Relative Fluorescence Units).

Test [6] deals with T1, Ba/F3-FGFR1-transfected cells (Homo sapiens, UniProt P11362).
T1 construct: BAF3-FGFR1 (MIN IL3) pIC50; other: minus IL3
T1 sequence (P11362 whole entry, change not shown): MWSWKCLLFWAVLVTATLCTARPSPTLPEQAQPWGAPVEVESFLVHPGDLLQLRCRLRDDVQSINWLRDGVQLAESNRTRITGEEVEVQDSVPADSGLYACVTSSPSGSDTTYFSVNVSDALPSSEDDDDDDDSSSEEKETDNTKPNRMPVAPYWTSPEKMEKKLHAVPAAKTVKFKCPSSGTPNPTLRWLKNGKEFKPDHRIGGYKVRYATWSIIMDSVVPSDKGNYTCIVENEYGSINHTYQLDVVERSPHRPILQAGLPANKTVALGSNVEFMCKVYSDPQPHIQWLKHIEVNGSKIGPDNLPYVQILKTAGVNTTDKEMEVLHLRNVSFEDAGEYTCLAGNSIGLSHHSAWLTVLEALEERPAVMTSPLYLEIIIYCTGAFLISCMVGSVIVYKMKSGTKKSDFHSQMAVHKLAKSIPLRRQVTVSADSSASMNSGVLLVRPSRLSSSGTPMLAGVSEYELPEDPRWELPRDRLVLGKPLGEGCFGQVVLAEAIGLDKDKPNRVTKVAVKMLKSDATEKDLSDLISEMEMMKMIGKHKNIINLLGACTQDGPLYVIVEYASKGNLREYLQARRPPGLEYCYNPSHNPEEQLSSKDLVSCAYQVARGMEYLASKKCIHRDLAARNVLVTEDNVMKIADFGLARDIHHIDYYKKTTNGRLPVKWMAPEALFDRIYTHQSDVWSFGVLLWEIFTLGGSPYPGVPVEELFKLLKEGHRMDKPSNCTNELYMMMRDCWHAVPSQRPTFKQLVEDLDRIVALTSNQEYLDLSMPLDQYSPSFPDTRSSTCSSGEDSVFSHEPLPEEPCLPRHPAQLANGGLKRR
Description: Ba/F3-FGFR1 (minus IL3) cellular proliferation assay, Alamar Blue. It is filed as cell-based. How it is done:
(§1) Ba/F3-FGFR1 (Minus IL3 or Plus IL3) (Cellular Proliferation Assay)
(§2) In a 384 well plate, 100 nl of compound dilution in DMSO was sprayed before adding 50 μl cell culture medium (phenol red free RPMI-1640, 10% FBS, 2 mM L-Glutamine and 50 μg/ml Gentamycin) containing 20000 cells per well of Ba/F3-FGFR1-transfected cells. Cells were put in an incubator at 37° C. and 5% CO2. After 24 hours, 10 μl of Alamar Blue solution (0.5 mM K3Fe(CN)6, 0.5 mM K4Fe(CN)6, 0.15 mM Resazurin and 100 mM Phosphate Buffer) was added to the wells, incubated for 4 hours at 37° C. and 5% CO2 before RFU's (Relative Fluorescence Units) (ex. 540 nm., em. 590 nm.) were measured in a fluororescence plate reader.

The test system of test [7] is Ba/F3-FGFR1-transfected cells. Kind of test: Ba/F3-FGFR1 (plus IL3) cellular proliferation assay, counterscreen with 10 ng/ml murine IL3. Format: cell-based. To be noted: plus IL3 (10 ng/ml murine IL3, counterscreen). How it is done: as §1, §2
(§3) As a counterscreen the same experiment was performed in the presence of 10 ng/ml murine IL3.

Test [8] addresses T2, Ba/F3-FGFR3-transfected cells (Homo sapiens, UniProt P22607).
T2 construct: BAF3-FGFR3 (MIN IL3) pIC50; other: minus IL3
Description: Ba/F3-FGFR3 (minus IL3) cellular proliferation assay, Alamar Blue. Format: cell-based. How it is done: (§4) Ba/F3-FGFR3 (Minus IL3 or Plus IL3) (Cellular Proliferation Assay)
as §2, with “Ba/F3-FGFR3-transfected” for “Ba/F3-FGFR1-transfected”, “reader. […]” for “reader.”

Test [9] has as its system Ba/F3-FGFR3-transfected cells. Kind of test: Ba/F3-FGFR3 (plus IL3) cellular proliferation assay, counterscreen with 10 ng/ml murine IL3. Format: cell-based. To be noted: plus IL3 (10 ng/ml murine IL3, counterscreen). The method, then: as §4
as §2, with “Ba/F3-FGFR3-transfected” for “Ba/F3-FGFR1-transfected”
as §3

Test [10] addresses T3, Ba/F3-KDR-transfected cells (Homo sapiens, UniProt P35968).
T3 construct: BAF3-KDR (MIN IL3) pIC50; other: minus IL3
Description: Ba/F3-KDR (minus IL3) cellular proliferation assay, Alamar Blue. It is filed as cell-based. The method, then: (§5) Ba/F3-KDR (Minus IL3 or Plus IL3) (Cellular Proliferation Assay)
as §2, with “n1” for “nl”, “Ba/F3-KDR-transfected” for “Ba/F3-FGFR1-transfected”, “reader. […]” for “reader.”

The subject of test [11] is Ba/F3-KDR-transfected cells. Kind of test: Ba/F3-KDR (plus IL3) cellular proliferation assay, counterscreen with 10 ng/ml murine IL3. Format: cell-based. Particulars: plus IL3 (10 ng/ml murine IL3, counterscreen). The method, then:
as §5
as §2, with “n1” for “nl”, “Ba/F3-KDR-transfected” for “Ba/F3-FGFR1-transfected”
as §3

In test [12] the target is Ba/F3-FGFR4-transfected cells (Homo sapiens, UniProt P22455). Description: Ba/F3-FGFR4 cellular proliferation assay, Alamar Blue. Format: cell-based. How it is done: Ba/F3-FGFR4 (Cellular Proliferation Assay)
Chain of Ba/F3-FGFR4-transfected cells (P22455 whole entry, change not shown): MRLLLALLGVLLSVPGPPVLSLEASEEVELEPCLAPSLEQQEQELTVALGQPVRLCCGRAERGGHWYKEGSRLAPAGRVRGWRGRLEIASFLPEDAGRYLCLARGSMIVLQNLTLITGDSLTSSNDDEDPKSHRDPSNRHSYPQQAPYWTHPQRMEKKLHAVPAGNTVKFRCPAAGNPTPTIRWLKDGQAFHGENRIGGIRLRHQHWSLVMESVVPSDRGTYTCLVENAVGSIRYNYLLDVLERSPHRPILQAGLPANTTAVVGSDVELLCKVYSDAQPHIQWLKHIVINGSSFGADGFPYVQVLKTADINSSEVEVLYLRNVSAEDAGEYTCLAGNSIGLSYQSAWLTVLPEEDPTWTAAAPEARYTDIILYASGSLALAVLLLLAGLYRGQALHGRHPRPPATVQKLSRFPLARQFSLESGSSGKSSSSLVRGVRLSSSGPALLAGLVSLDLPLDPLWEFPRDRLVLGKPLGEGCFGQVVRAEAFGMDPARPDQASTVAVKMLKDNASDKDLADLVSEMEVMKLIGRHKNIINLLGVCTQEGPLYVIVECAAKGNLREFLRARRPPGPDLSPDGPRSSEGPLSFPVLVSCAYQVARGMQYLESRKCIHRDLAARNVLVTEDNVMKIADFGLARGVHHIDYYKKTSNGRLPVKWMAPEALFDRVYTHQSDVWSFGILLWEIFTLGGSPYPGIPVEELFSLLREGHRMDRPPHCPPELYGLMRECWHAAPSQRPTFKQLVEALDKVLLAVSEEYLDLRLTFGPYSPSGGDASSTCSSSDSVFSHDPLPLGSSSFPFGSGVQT
as §2, with “n1” for “nl”, “Ba/F3-FGFR4-transfected” for “Ba/F3-FGFR1-transfected”

Where [13] appears, read: average values if tested multiple times.

Data on six compounds can be found in patent US9309242B2, “Substituted pyrido[2,3-b]pyrazines as FGFR kinase inhibitors” (priority 2011, dated 2016).

Counter-ions that a name gives are not always drawn. Like-named read-outs stand apart in the source and are kept apart here. Where only a bound is given, the exact number is not on record here.

Chain of FGFR3 (h) (P22607 23-806): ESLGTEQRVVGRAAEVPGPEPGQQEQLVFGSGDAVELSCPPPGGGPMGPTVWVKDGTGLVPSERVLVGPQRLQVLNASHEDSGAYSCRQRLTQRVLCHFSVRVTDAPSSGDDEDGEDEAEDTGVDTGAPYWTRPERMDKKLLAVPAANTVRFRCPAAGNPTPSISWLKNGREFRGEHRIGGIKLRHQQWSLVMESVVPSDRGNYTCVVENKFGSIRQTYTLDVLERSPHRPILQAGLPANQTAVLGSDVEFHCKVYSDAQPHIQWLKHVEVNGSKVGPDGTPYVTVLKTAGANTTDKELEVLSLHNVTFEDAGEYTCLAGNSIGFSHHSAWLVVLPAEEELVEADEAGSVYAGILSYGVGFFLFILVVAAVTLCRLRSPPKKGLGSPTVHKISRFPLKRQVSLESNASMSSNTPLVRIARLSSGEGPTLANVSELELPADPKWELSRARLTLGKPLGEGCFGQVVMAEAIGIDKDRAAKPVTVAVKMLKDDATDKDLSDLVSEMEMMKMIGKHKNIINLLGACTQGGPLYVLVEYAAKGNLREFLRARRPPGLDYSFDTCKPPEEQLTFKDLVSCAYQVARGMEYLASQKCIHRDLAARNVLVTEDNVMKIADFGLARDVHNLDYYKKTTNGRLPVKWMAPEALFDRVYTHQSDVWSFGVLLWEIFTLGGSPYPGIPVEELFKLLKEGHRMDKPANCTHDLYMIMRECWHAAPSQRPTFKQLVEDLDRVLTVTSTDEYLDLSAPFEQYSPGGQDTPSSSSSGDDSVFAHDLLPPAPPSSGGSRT

For the compound `COc1cc(OC)cc(N(Cc2ncc[nH]2)c2ccc3ncc(-c4cnn(C)c4)nc3n2)c1` [24-fumarate salt], the IC50 in [1] (setting [13]) is 0.631 nM; in test [2] (setting [13]), 1.26 nM; in test [3] (setting [13]) it was 0.851 nM; in test [4] (setting [13]), 1.2 nM; in test [5] (setting [13]) it was 11.7 nM. In addition, the “BAF3-FGFR1 (MIN IL3) pIC50” value in test [6] came to 8.46. The “BAF3-FGFR1 (PLUS IL3) pIC50” value in test [7] is listed as less than 5. Further, in [8], the “BAF3-FGFR3 (MIN IL3) pIC50” value is given as roughly 8.61. The “BAF3-FGFR3 (PLUS IL3) pIC50” value in test [9] was less than 5. In addition, the “BAF3-KDR (MIN IL3) pIC50” value in test [10] is on record as 6.38. The “BAF3-KDR (PLUS IL3) pIC50” value in [11] is reported as less than 5. For the same compound, in test [12], the “BAF3-FGFR4 pIC50” value turned out to be 7.85.
For the compound `COc1cc(OC)c(F)c(N(CC2CCC(=O)N2)c2ccc3ncc(-c4cnn(C)c4)nc3n2)c1` (stereo not drawn) [Compound 52], the IC50 in [1] (setting [13]) was 2.57 nM; in test [2] (setting [13]), 2.69 nM; in test [3] (setting [13]) it was 1.95 nM; in test [4] (setting [13]) it was 4.79 nM; in test [5] (setting [13]) it was 25.1 nM. For the same compound, the “BAF3-FGFR1 (MIN IL3) pIC50” value in test [6] is on record as 7.10. Also, the “BAF3-FGFR1 (PLUS IL3) pIC50” value in test [7] was less than 5. Further, in test [8], the “BAF3-FGFR3 (MIN IL3) pIC50” value was found to be 7.10. In addition, the “BAF3-FGFR3 (PLUS IL3) pIC50” value in test [9] was less than 5. Also, in test [10], the “BAF3-KDR (MIN IL3) pIC50” value is 5.56. Also, the “BAF3-KDR (PLUS IL3) pIC50” value in test [11] is less than 5. Further, the “BAF3-FGFR4 pIC50” value in test [12] is on record as 6.55.
As for `COc1ccc(Cl)c(N(CC2CCC(=O)N2)c2ccc3ncc(-c4cnn(C)c4)nc3n2)c1Cl` (stereo not drawn) [Compound 94], the IC50 is 97.7 nM in test [1], 49 nM in test [2], 81.3 nM in [3] and 676 nM in test [4]. In test [5], the “VEGFR 2 (KDR) pIC50” value is on record as less than 6. Further, the “BAF3-FGFR1 (MIN IL3) pIC50” value in test [6] came out at 5.52. Further, the “BAF3-FGFR1 (PLUS IL3) pIC50” value in test [7] is listed as less than 5. In test [8], the “BAF3-FGFR3 (MIN IL3) pIC50” value was roughly 5.56. For the same compound, the “BAF3-FGFR3 (PLUS IL3) pIC50” value in test [9] is on record as less than 5. Besides, the “BAF3-KDR (MIN IL3) pIC50” value in [10] is given as less than 5. Further, the “BAF3-KDR (PLUS IL3) pIC50” value in test [11] was less than 5. Further, the “BAF3-FGFR4 pIC50” value in test [12] is recorded as less than 5.
With `COc1cc(OC)cc(N(Cc2ncc[nH]2)c2ccc3ncc(-c4cnn(C)c4)nc3n2)c1` [24-sulphate salt], the IC50 is 0.55 nM in test [1] (setting [13]); 1.29 nM in test [2] (setting [13]); roughly 0.912 nM in test [3] (setting [13]); 0.759 nM in [4] (setting [13]); 13.2 nM in test [5] (setting [13]). In addition, the “BAF3-FGFR1 (MIN IL3) pIC50” value in test [6] turned out to be 8.29. In addition, the “BAF3-FGFR1 (PLUS IL3) pIC50” value in [7] is less than 5. Besides, the “BAF3-FGFR3 (MIN IL3) pIC50” value in [8] is recorded as roughly 8.15. Moreover, the “BAF3-FGFR3 (PLUS IL3) pIC50” value in test [9] is listed as less than 5. Besides, the “BAF3-KDR (MIN IL3) pIC50” value in test [10] is 6.15. In addition, the “BAF3-KDR (PLUS IL3) pIC50” value in [11] is reported as less than 5. Also, in test [12], the “BAF3-FGFR4 pIC50” value is given as 7.57.
Turning to `COc1cc(OC)c(F)c(N(Cc2ncc[nH]2)c2ccc3ncc(-c4cnn(C)c4)nc3n2)c1` [23-hydrochloric acid salt], the IC50 was 0.437 nM in test [1] (setting [13]); 1.41 nM in test [2] (setting [13]); 0.776 nM in test [3] (setting [13]); 0.851 nM in [4] (setting [13]); 6.76 nM in [5] (setting [13]). Further, the “BAF3-FGFR1 (MIN IL3) pIC50” value in test [6] came to 8.81. Also, the “BAF3-FGFR1 (PLUS IL3) pIC50” value in test [7] was less than 5. Also, the “BAF3-FGFR3 (MIN IL3) pIC50” value in test [8] is recorded as roughly 8.58. Besides, in [9], the “BAF3-FGFR3 (PLUS IL3) pIC50” value is listed as less than 5. For the same compound, the “BAF3-KDR (MIN IL3) pIC50” value in test [10] is recorded as 6.68. In addition, the “BAF3-KDR (PLUS IL3) pIC50” value in test [11] was less than 5. For the same compound, the “BAF3-FGFR4 pIC50” value in test [12] amounted to 7.98.
Turning to `COc1cc(OC)c(F)c(N(CC2CCOC2)c2ccc3ncc(-c4cnn(C)c4)nc3n2)c1` (single isomer, unassigned) [Compound 171], the IC50 in test [1] is 3.55 nM; in test [2], 2.57 nM; in test [3], 1.55 nM; in test [4] it was 3.72 nM; in [5], roughly 14.5 nM. The “BAF3-FGFR1 (MIN IL3) pIC50” value in test [6] turned out to be 7.10. For the same compound, the “BAF3-FGFR1 (PLUS IL3) pIC50” value in test [7] was less than 5. In addition, the “BAF3-FGFR3 (MIN IL3) pIC50” value in test [8] was found to be 7.28. In addition, in test [9], the “BAF3-FGFR3 (PLUS IL3) pIC50” value is recorded as less than 5. Also, in test [10], the “BAF3-KDR (MIN IL3) pIC50” value is reported as 5.63. In [11], the “BAF3-KDR (PLUS IL3) pIC50” value is less than 5. Further, in test [12], the “BAF3-FGFR4 pIC50” value turned out to be 6.55.
